# Experimental data from patent US10806711B2 (priority 2011, dated 2020).
# “Also recorded” adds a separate entry of the source.
# Tests used:
# TRPV2^+/− mice = experiment: Contractility by echo after IP probenecid in TRPV2+/− mice; format: in vivo, mouse; conditions: 100 mg/kg
# Experimental: WT, TRPV2^+/−, and TRPV2^−/− mice were monitored by echo for 30 minutes after injection as described below. Echocardiography—All echocardiographic studies were performed with a Vevo 2100 Ultrasound system (Visualsonics, Toronto Calif.) with an MS400 probe (30 MHz centerline frequency) and were post-processed at a separate workstation with Vevostrain software (Vevo 2100, v1.1.1 B1455, Visualsonic, Toronto, Canada). Images were obtained from PSLAX and short axis (SAX) views at depths between 2 and 10 mm in both M-mode and B-mode. All studies on mice exposed to I/R injury included M-mode, B-mode in PSLAX and strain imaging in SAX. While for the contractility studies, only M-mode measurements were obtained from the PSLAX. Strain imaging was performed from the B-mode images and regional radial strain and circumferential displacement were measured by regional wall and summed average from the SAX images. From the M-mode images, left ventricular cavity size and wall thickness was measured and the ejection fraction (EF) and fractional shortening (FS) calculations were obtained using the Vevo software. […] In addition, the average change from baseline for each time point between 5 and 30 minutes was determined for each mouse, with measurements being taken every 5 minutes. […]
# [1] = tested on: isolated ventricular myocytes; experiment: Myocyte Ca2+ transient and cytosolic Ca2+ measurement; format: cell-based, mouse
# Experimental: Isolation of ventricular myocytes—Hearts from WT mice (12-week old) were perfused on the Langendorff system with a modified Krebs-Henseleit buffer (KHB) composed of (mM) NaCl 118, KCl 5.4, HEPES 10, NaH2PO4 0.33, MgCl2 2, glucose 10, taurine 30, butanedione monoxime 10 (pH=7.4). Then an enzyme solution (KHB containing 0.7 mg/ml type II collagenase, 0.1% BSA and 25 μM CaCl2) was used to digest the hearts for 10 min. Finally, ventricles of the hearts were excised, minced and filtered to obtain isolated cells. After sufficient sedimentation, the supernatant was removed and the cells were resuspended.
# Myocyte Ca^2+ transient and cytosolic Ca^2+ measurement—Myocytes were loaded with Fluo-4 acetoxymethyl ester (7 μM) for 20 min at room temperature, followed by a 10 min wash with Tyrode's solution, and then placed onto a plexiglass chamber for recording. For Ca^2+ transient measurements, myocytes were excited under 0.5 Hz and 3 Hz field stimulation, and the fluorescence signals were obtained using a Nikon TE 2000 microscope and collected through an InCyt Standard photometry system. For cytosolic Ca^2+ analysis in quiescent myocytes, a Zeiss LSM 510 confocal microscope was used to record fluorescent images from resting myocytes. Line-scan mode was applied at 3.07 ms intervals with 512 pixels spaced at 0.056 μm. Drugs were dissolved in Tyrode's solution and perfused into the chamber. Images of myocytes were recorded every 30 s after drug application. Data analysis was performed using Clampfit 9.2 and Image J 1.44 software.
# Water soluble probenecid was used for all of the myocyte experiments.
# HL-1 cells = format: cell-based
# Experimental: Cell Viability Assays—Cell viability was assessed using the ApoTox-Glo Triplex Assay (Promega, Madison, Wis.) per manufacturer's instructions. Briefly, HL-1 cells were seeded in 96 well plates at a density of 1×10^4 cells/well and allowed to grow overnight in Claycomb media supplemented with 10% FBS, 100 U/ml penicillin/streptomycin, and 2 mM L-glutamine. […] GF-AFC viability was then added to ApoTox-Glo Assay Buffer at a ratio of 10 μl GF-AFC to 2.0 ml Assay Buffer and 20 μl of this mixture was added to each well and cells were incubated at 37° C. for 30 minutes. Fluorescence was measured at 400 nm (ex)/505 nm (em) and the data was normalized to untreated control cells.
# [2] = tested on: mice with and without I/R injury; conditions: mouse, in vivo, po, 6.33 mg/kg/day
# Experimental: The hearts were removed, rinsed with PBS, fixed with 3.7% buffered formaldehyde (after 30 minutes the buffer was changed) and dehydrated (hearts were placed in 70% ethanol after 18-24 hours). The samples were embedded in paraffin, sectioned into thicknesses of 6 μm, each 10 μm apart, and 2 heart sections were placed onto each slide. The slides were prepared using the in situ apoptosis detection kit, CardioTACS (Trevigen, Gaithersburg, Md.) according to the manufacturer's instructions. After staining, the slides were placed on a microscope (Olympus 1×71) and the number of apoptotic cells was counted by two separate and blinded readers in 5 fields of view for each heart section. The total number of cells was also determined for the same field, and the apoptotic cells were calculated to be a percentage of the total cells.
# The water was changed twice a week and the volume was measured before and after consumption to determine the approximate dose. The mice were housed 2 to a cage for a more accurate assessment of total dose administered.
# mice after I/R injury = experiment: Ischemia/Reperfusion followed by probenecid bolus (echocardiography); format: in vivo, mouse
# Experimental: Ischemia/Reperfusion methods—Mice were anesthetized with sodium pentobarbital and the heart exposed through a left thoracotomy at the level of the fourth intercostal space. The mice were intubated and placed on a mini-ventilator (Harvard apparatus, Holliston, Mass.). A loop occluder was placed around the left anterior descending artery (LAD), and tightened, occluding it for either 30 minutes or 45 minutes. After surgery, the thorocotomy was sutured in layers, and the animal was allowed to recover. Echocardiography methods—All echocardiographic studies were performed as previously described for Example 1. […] The mice were imaged at 5 minute intervals for a total of 30 minutes.
# [3] = tested on: subjects with uncomplicated congestive heart failure; conditions: 2 g/day or 4 g/day orally over several days; cited from earlier work
compound,measurement,setting,value
CCCN(CCC)S(=O)(=O)c1ccc(C(=O)O)cc1 [probenecid],decrease in contractility response versus WT,TRPV2^+/− mice,approximately 50%
same,decay rate (Tau) of Ca2+ transient,[1]; 0.1 μM,not affected
same,time to peak of cytosolic Ca2+ after treatment,[1]; 0.1 μM,approximately 5 min
same,Ca2+ spark frequency,"[1]; 0.1 μM for 5 minutes, from 1.45±0.09",2.99±0.24
same,increase of cytosolic Ca2+ compared to control at steady state,"[1]; 0.1 μM, quiescent myocytes",2.5±0.2 fold
same,Ca2+ transient amplitude (ΔF/F0),"[1]; 0.1 μM, from 3.35±0.20, P<0.001",4.25±0.25
same,cytotoxicity / cell death,"HL-1 cells; increasing doses, 4, 8 or 24 hours following treatment",does not result in any detectable cytotoxicity; also recorded: no significant cell death
same,cell death in HL-1 cells (Example 3 summary),"HL-1 cells; probenecid at supraphysiological, isoproterenol at clinically relevant concentrations",no cell death
same,apoptosis in healthy mice,[2],did not induce significant apoptosis
same,EF after I/R injury,"mice after I/R injury; 100 mg/kg IP bolus, all treated mice",statistically significant increase in EF
same,change in EF at peak effect,"mice after I/R injury; 100 mg/kg IP, 10 minutes, mice with initial EF 50-60%",19.72±4.10%
same,time of peak effect on EF,"mice after I/R injury; 100 mg/kg IP, mice with initial EF 50-60%",10 min
same,contractility over time,"mice after I/R injury; 100 mg/kg IP, mice with lower initial EFs (40-50%)",continued to enhance contractility throughout the full 30-minute experiment
same,diuretic effect,[3],strong diuretic effect
